Results as given in patent publication US8263406B2, “Enriched or purified population of motor neurons and its preparation from a population of embryonic stem cells” (Cornell Research Foundation, Inc., priority 2003, dated 2012).

Test system: hES cells
Experiment: Induction of motor neurons from hES cell-derived embryoid bodies, quantified by immunocytochemistry
Format: cell-based, human
Settings: H1 hES-derived EBs, RA 10 uM
Text: A modified version of the protocol described in Wichterle et al., “Directed Differentiation of Embryonic Stem Cells into Motor Neurons,” Cell 110:385-397 (2002), which is hereby incorporated by reference in its entirety, was used for induction and differentiation of motor neurons from hES cells (FIG. 1A). For caudalization and specification to motor neurons, 90% confluent hES cell cultures were dissociated to form embryoid bodies (EB) in suspension dishes (Ultra low cluster 6 well plates, […], Mass.). Fresh RA was added every day and fresh medium along with SHH replaced every 72 hrs. After 6-8 days, differentiation of motor neurons was induced by plating the spheres formed onto poly-ornithin/fibronectin coated plates in DMEM/F12 supplemented with N2 (Gibco), GDNF (20 ng/ml), BDNF (20 ng/ml), or neurotrophin 4 (NT4) (20 ng/ml), CNTF (20 ng/ml), B27 (1X) and 2% FBS. After 7-14 days, cultures were either fixed for immunocytochemistry or used for physiology.
Cells were stained at different stages of culture for the following: Tra 1-81 (Mouse IgG, 1:200), SSEA-4 (supernatant, mouse IgG, 1:50, DSHB), βIII-tubulin (mouse IgG; 1:400, Covance), Islet1 (supernatant, mouse IgG, 1:50, Developmental Studies Hybridoma Bank from the University of Iowa (DSHB)), Hb9 (supernatant, mouse IgG, 1:50, DSH), ChAT (Rabbit IgG, 1:200, Chemicon), desmin (Rabbit IgG, 1:200, Sigma), and GFP (mouse IgG, 1:100). […]
To determine if hES cells had the capacity to respond to the caudalizing effects of RA and the ventralizing effects of SHH to generate MNs (Wichterle et al., “Directed Differentiation of Embryonic Stem Cells into Motor Neurons,” Cell 110:385-397 (2002), which is hereby incorporated by reference in its entirety), hES cells were raised to 90% confluency before inducing them to form EBs in suspension cultures. […] After a week in a differentiated condition, the cells were fixed and the percentage of βIII-tubulin expressing neurons was determined. […]

CC1=C(/C=C/C(C)=C/C=C/C(C)=C/C(=O)O)C(C)(C)CCC1 [RA+/SHH−, all-trans retinoic acid]
percentage of neurons (βIII-tubulin expressing) generated from the differentiated EBs (8-9 days in suspension, one week differentiation with FBS/B27/BDNF/GDNF/CNTF, of total population): around 30% | percentage of βIII-tubulin expressing neurons that expressed islet-1/ChAT (SHH 200 nM where present, FIG. 2E): 3%-10% | percentage of βIII-tubulin expressing neurons that expressed Hb9 (SHH 200 nM where present, FIG. 2F): 3%-6%
